Reference: patent publication US12403137B2, “Compounds and methods of use” (Tango Therapeutics, Inc., priority 2019, dated 2025)
pIC50: −log10 of the molar value.

How the values were obtained:
[1] = test system: HAP1 MTAP-intact cell line; experiment: SDMA in-cell western assay, HAP1 MTAP-intact; format: cell-based; details: Homo sapiens
Method: (§1) Table 1 also indicates IC50 values in an MTAP-isogenic cell line pair for exemplary compounds in an SDMA in-cell western assay (columns 7-8). HAP1 MTAP-intact is a cell line in which endogenous levels of MTAP are expressed, and HAP1 MTAP-deleted is an MTAP-null cell line. For Table 1, “a*” and “aa*” indicates an IC50 of <1 μM, “b*” and “bb*” indicates an IC50 equal to or greater than 1 μM but less than 10 μM, and “c*” and “cc*” indicates an IC50 of greater than or equal to 10 μM in the HAP1 MTAP-intact and the HAP1 MTAP-deleted assays, respectively. In column 9, “A*” indicates an IC50 ratio greater than or equal to 10 fold between the IC50 in the HAP1 MTAP-intact cell line and the HAP1 MTAP-deleted cell line; “B*” indicates an IC50 ratio greater than or equal to 3 fold but lower than 10 fold between the IC50 in the HAP1 MTAP-intact cell line and the HAP1 MTAP-deleted cell line; “C*” indicates an IC50 ratio of less than 3 fold between the IC50 in the HAP1 MTAP-intact cell line and the HAP1 MTAP-deleted cell line. Compounds with a ratio in the SDMA in-cell western assay of equal to or greater than 3 fold are considered MTAP-selective.

PRMT5 [2] = target: T1, PRMT5 (Homo sapiens, UniProt O14744); experiment: PRMT5 inhibition assay with MTA as cofactor; format: biochemical; details: for pIC50: against PRMT5 with MTA as cofactor; for SAM/MTA Ratio: ratio of Ki in the presence of SAM to Ki in the presence of MTA, Ki=IC50/1.5 (SAM), Ki=IC50/13.5 (MTA)
T1 construct: purchased Viva (custom protein)
Source text: (§2) The Ki values can be calculated from the IC50 values as described in the Examples section. As detailed in the Examples section, for the assay performed in the presence of SAM, IC50=Ki×1.5 (Ki=IC50/1.5). For the assay performed in the presence of MTA, IC50=Ki×13.5 (Ki=IC50/13.5). Column 6 indicates the ratio between the Ki of compounds in the presence of SAM and the Ki of compounds in the presence of MTA

[3] = test system: HAP1 MTAP-deleted cell line; experiment: SDMA in-cell western assay, HAP1 MTAP-deleted; format: cell-based; details: for pIC50: Homo sapiens, HAP1 MTAP-deleted (MTAP-null) cell line; for MTAP Intact/Deleted Ratio: IC50 ratio HAP1 MTAP-intact / HAP1 MTAP-deleted, >=3 fold considered MTAP-selective
Method: as §1

PRMT5 [4] = target: T1, PRMT5; experiment: PRMT5 inhibition assay with SAM as cofactor; format: biochemical; details: against PRMT5 in the presence of SAM as cofactor
Source text: as §2

PRMT5 [5] = target: T1, PRMT5; experiment: PRMT5 inhibition assay with no cofactor; format: biochemical; details: against PRMT5 with no cofactor; read-out: No Co-factor IC50

T1 sequence (O14744 whole entry): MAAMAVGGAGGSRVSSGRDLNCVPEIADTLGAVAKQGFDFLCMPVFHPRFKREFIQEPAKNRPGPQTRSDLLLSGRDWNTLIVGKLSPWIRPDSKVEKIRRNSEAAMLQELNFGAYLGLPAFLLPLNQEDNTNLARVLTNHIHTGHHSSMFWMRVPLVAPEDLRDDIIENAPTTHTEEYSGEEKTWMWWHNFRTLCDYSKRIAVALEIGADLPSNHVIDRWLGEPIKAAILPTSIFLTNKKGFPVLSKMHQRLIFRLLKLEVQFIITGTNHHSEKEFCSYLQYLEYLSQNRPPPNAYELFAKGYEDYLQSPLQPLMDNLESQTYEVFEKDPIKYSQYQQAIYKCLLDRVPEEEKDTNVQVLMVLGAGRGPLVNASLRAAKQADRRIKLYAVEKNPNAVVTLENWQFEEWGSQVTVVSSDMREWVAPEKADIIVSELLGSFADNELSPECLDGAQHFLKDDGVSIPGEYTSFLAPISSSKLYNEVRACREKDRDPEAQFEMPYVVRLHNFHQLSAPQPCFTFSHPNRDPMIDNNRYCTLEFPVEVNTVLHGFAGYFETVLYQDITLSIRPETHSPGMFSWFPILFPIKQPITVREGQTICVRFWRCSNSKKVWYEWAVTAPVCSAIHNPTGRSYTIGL
T1 sequence (Q9BQA1 whole entry partner): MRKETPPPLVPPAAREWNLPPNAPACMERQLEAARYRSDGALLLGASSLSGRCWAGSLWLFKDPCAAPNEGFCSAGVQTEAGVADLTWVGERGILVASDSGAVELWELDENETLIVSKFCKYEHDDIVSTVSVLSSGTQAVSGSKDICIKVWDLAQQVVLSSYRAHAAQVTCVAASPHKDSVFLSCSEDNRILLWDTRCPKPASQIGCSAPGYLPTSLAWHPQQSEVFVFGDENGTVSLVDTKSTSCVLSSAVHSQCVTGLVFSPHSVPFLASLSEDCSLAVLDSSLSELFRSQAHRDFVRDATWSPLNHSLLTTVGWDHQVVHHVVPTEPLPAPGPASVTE

Compound | pIC50 [1] | pIC50 (PRMT5 [2]) | pIC50 [3] | pIC50 (PRMT5 [4]) | pIC50 (PRMT5 [5]) | SAM/MTA Ratio (PRMT5 [2]) | MTAP Intact/Deleted Ratio [3]
CC(=O)N1CCC(Nc2cc(C(=O)NC[C@@H](O)[C@@H]3Cc4ccc(OCc5ocnc5C)cc4CN3)ncn2)CC1 [Compound 41, 6-[(1-acetyl-4-piperidyl)amino]-N-[(2R)-2-hydroxy-2-[(3S)-7-[(4-methyloxazol-5-yl)methoxy]-1,2,3,4-tetrahydroisoquinolin-3-yl]ethyl]pyrimidine-4-carboxamide] | ≤ 5.00 | > 7.30 | 5.00 to 6.00 | 6.30 to 7.30 | 5.30 to 6.30 | A (a Ki ratio greater than or equal to 10 fold between the Ki in the presence of SAM and the Ki in the presence of MTA) | B* (an IC50 ratio greater than or equal to 3 fold but lower than 10 fold between the IC50 in the HAP1 MTAP-intact cell line and the HAP1 MTAP-deleted cell line)
Cc1ncoc1COc1ccc2c(c1)CN[C@H]([C@H](O)CNC(=O)c1cc(NC3CC4(CCC4)C3)nc(N3CCN(C(=O)C4CC4)CC3)c1)C2 [Compound 42, 2-[4-(cyclopropanecarbonyl)piperazin-1-yl]-N-[(2R)-2-hydroxy-2-[(3S)-7-[(4-methyloxazol-5-yl)methoxy]-1,2,3,4-tetrahydroisoquinolin-3-yl]ethyl]-6-(spiro[3.3]heptan-2-ylamino)pyridine-4-carboxamide] | > 6.00 | 6.30 to 7.30 | > 6.00 | 6.30 to 7.30 | 6.30 to 7.30 | A (a Ki ratio greater than or equal to 10 fold between the Ki in the presence of SAM and the Ki in the presence of MTA) | A* (an IC50 ratio greater than or equal to 10 fold between the IC50 in the HAP1 MTAP-intact cell line and the HAP1 MTAP-deleted cell line)
CCOc1cc(C(=O)N2[C@@H]3CCC[C@H]2COC3)ccc1C(=O)NC[C@@H](O)[C@@H]1Cc2ccc(OCc3ccnn3C)cc2CN1 [Compound 6, 4-((1R,5S)-3-oxa-9-azabicyclo[3.3.1]nonane-9-carbonyl)-2-ethoxy-N—((R)-2-hydroxy-2-((S)-7-((1-methyl-1H-pyrazol-5-yl)methoxy)-1,2,3,4-tetrahydroisoquinolin-3-yl)ethyl)benzamide] | > 6.00 | 6.30 to 7.30 | > 6.00 | 6.30 to 7.30 | 5.30 to 6.30 | A (a Ki ratio greater than or equal to 10 fold between the Ki in the presence of SAM and the Ki in the presence of MTA) | C* (an IC50 ratio of less than 3 fold between the IC50 in the HAP1 MTAP-intact cell line and the HAP1 MTAP-deleted cell line)
CCOc1cc(C(=O)N2C3CCC2COC3)ccc1C(=O)NC[C@@H](O)[C@@H]1Cc2ccc(OCc3cnco3)cc2CN1 [Compound 11, 4-(3-oxa-8-azabicyclo[3.2.1]octane-8-carbonyl)-2-ethoxy-N—((R)-2-hydroxy-2-((S)-7-(oxazol-5-ylmethoxy)-1,2,3,4-tetrahydroisoquinolin-3-yl)ethyl)benzamide] | 5.00 to 6.00 | 6.30 to 7.30 | > 6.00 | 6.30 to 7.30 | 5.30 to 6.30 | A (a Ki ratio greater than or equal to 10 fold between the Ki in the presence of SAM and the Ki in the presence of MTA) | B* (an IC50 ratio greater than or equal to 3 fold but lower than 10 fold between the IC50 in the HAP1 MTAP-intact cell line and the HAP1 MTAP-deleted cell line)
Cc1ncoc1COc1ccc2c(c1)CN[C@H]([C@H](O)CNC(=O)c1ccc(C(=O)N3[C@@H]4CCC[C@H]3COC4)cc1)C2 [Compound 8, 4-((1R,5S)-3-oxa-9-azabicyclo[3.3.1]nonane-9-carbonyl)-N—((R)-2-hydroxy-2-((S)-7-((4-methyloxazol-5-yl)methoxy)-1,2,3,4-tetrahydroisoquinolin-3-yl)ethyl)benzamide] | 5.00 to 6.00 | 6.30 to 7.30 | > 6.00 | 6.30 to 7.30 | 6.30 to 7.30 | A (a Ki ratio greater than or equal to 10 fold between the Ki in the presence of SAM and the Ki in the presence of MTA) | A* (an IC50 ratio greater than or equal to 10 fold between the IC50 in the HAP1 MTAP-intact cell line and the HAP1 MTAP-deleted cell line)
Cc1ncoc1COc1ccc2c(c1)CN[C@H]([C@H](O)CNC(=O)c1ccnc(Nc3cccnc3)c1)C2 [Compound 34, N—((R)-2-hydroxy-2-((S)-7-((4-methyloxazol-5-yl)methoxy)-1,2,3,4-tetrahydroisoquinolin-3-yl)ethyl)-2-(pyridin-3-ylamino)isonicotinamide] | ≤ 5.00 | > 7.30 | 5.00 to 6.00 | 6.30 to 7.30 | 6.30 to 7.30 | A (a Ki ratio greater than or equal to 10 fold between the Ki in the presence of SAM and the Ki in the presence of MTA) | B* (an IC50 ratio greater than or equal to 3 fold but lower than 10 fold between the IC50 in the HAP1 MTAP-intact cell line and the HAP1 MTAP-deleted cell line)
Cc1ncoc1COc1ccc2c(c1)CN[C@H]([C@H](O)CNC(=O)c1cc(NC3CCC3)ncc1F)C2 [Compound 27, 2-(cyclobutylamino)-5-fluoro-N—((R)-2-hydroxy-2-((S)-7-((4-methyloxazol-5-yl)methoxy)-1,2,3,4-tetrahydroisoquinolin-3-yl)ethyl)isonicotinamide] | 5.00 to 6.00 | 6.30 to 7.30 | > 6.00 | 6.30 to 7.30 | 5.30 to 6.30 | A (a Ki ratio greater than or equal to 10 fold between the Ki in the presence of SAM and the Ki in the presence of MTA) | A* (an IC50 ratio greater than or equal to 10 fold between the IC50 in the HAP1 MTAP-intact cell line and the HAP1 MTAP-deleted cell line)

Second part, led by results:

pIC50 [1] | pIC50 (PRMT5 [2]) | pIC50 [3] | pIC50 (PRMT5 [4]) | pIC50 (PRMT5 [5]) | Compound | SAM/MTA Ratio (PRMT5 [2]) | MTAP Intact/Deleted Ratio [3]
> 6.00 | > 7.30 | > 6.00 | 6.30 to 7.30 | 6.30 to 7.30 | Cc1ncoc1COc1ccc2c(c1)CN[C@H]([C@H](O)CNC(=O)c1cc(NC3CCC3)nc(N3CCN(C)CC3)c1)C2 [Compound 52, 2-(cyclobutylamino)-N-[(2R)-2-hydroxy-2-[(3S)-7-[(4-methyloxazol-5-yl)methoxy]-1,2,3,4-tetrahydroisoquinolin-3-yl]ethyl]-6-(4-methylpiperazin-1-yl)pyridine-4-carboxamide] | A (a Ki ratio greater than or equal to 10 fold between the Ki in the presence of SAM and the Ki in the presence of MTA) | A* (an IC50 ratio greater than or equal to 10 fold between the IC50 in the HAP1 MTAP-intact cell line and the HAP1 MTAP-deleted cell line)
5.00 to 6.00 | > 7.30 | > 6.00 | 6.30 to 7.30 | 6.30 to 7.30 | Cc1ncoc1COc1ccc2c(c1)CN[C@H]([C@H](O)CNC(=O)c1cc(NC3CCC3)cc(N3CCCCC3)c1)C2 [Compound 58, 3-(cyclobutylamino)-N-[(2R)-2-hydroxy-2-[(3S)-7-[(4-methyloxazol-5-yl)methoxy]-1,2,3,4-tetrahydroisoquinolin-3-yl]ethyl]-5-(1-piperidyl)benzamide] | A (a Ki ratio greater than or equal to 10 fold between the Ki in the presence of SAM and the Ki in the presence of MTA) | A* (an IC50 ratio greater than or equal to 10 fold between the IC50 in the HAP1 MTAP-intact cell line and the HAP1 MTAP-deleted cell line)
≤ 5.00 | > 7.30 | > 6.00 | 6.30 to 7.30 | 6.30 to 7.30 | CC(=O)N1CC(Nc2cc(C(=O)NC[C@@H](O)[C@@H]3Cc4ccc(OCc5ocnc5C)cc4CN3)nc(N3CCCC3)n2)C1 [Compound 61, 6-[(1-acetylazetidin-3-yl)amino]-N-[(2R)-2-hydroxy-2-[(3S)-7-[(4-methyloxazol-5-yl)methoxy]-1,2,3,4-tetrahydroisoquinolin-3-yl]ethyl]-2-pyrrolidin-1-yl-pyrimidine-4-carboxamide] | A (a Ki ratio greater than or equal to 10 fold between the Ki in the presence of SAM and the Ki in the presence of MTA) | A* (an IC50 ratio greater than or equal to 10 fold between the IC50 in the HAP1 MTAP-intact cell line and the HAP1 MTAP-deleted cell line)
> 6.00 | > 7.30 | > 6.00 | 6.30 to 7.30 | 6.30 to 7.30 | Cc1ncoc1COc1ccc2c(c1)CN[C@H]([C@H](O)CNC(=O)c1cc(NC3CCC3)nc(N3CCN(C(C)C)CC3)n1)C2 [Compound 63] | A (a Ki ratio greater than or equal to 10 fold between the Ki in the presence of SAM and the Ki in the presence of MTA) | C* (an IC50 ratio of less than 3 fold between the IC50 in the HAP1 MTAP-intact cell line and the HAP1 MTAP-deleted cell line)
